Reference: PubChem BioAssay AID2483 (Sanford-Burnham Center for Chemical Genomics, 2010)
Active and inactive are the calls of the source. The rule behind the calls is not given here.

Test system: TNFa-induced NF-kB reporter inhibition, human cells
Assay: analog potency on TNFa NF-kB signaling – cell-based, set 2, SAR follow-up (AID 2483)

| SMILES | IC50 |
| --- | --- |
| C/C=C/Cn1c(SCCCc2ccccc2)nc2c1c(=O)[nH]c(=O)n2C | 8.49 µM |
| C=CCn1c(SCCCc2ccccc2)nc2c1c(=O)[nH]c(=O)n2C | 16.8 µM |
| C/C=C/Cn1c(SCc2ccccc2)nc2c1c(=O)[nH]c(=O)n2C | > 20 µM (inactive) |
| CCCCn1c(SCC(=O)c2ccccc2)nc2c1c(=O)[nH]c(=O)n2C | > 20 µM (inactive) |
| CC(C)n1c(SCCCc2ccccc2)nc2c1c(=O)[nH]c(=O)n2C | > 20 µM (inactive) |
| CCCn1c(SCCc2ccccc2)nc2c1c(=O)[nH]c(=O)n2C | > 20 µM (inactive) |
| CC(C)Sc1nc2c(c(=O)[nH]c(=O)n2C)n1Cc1ccccc1 | > 20 µM (inactive) |
| CCCCn1c(SCC(=O)Nc2nnc(CC)s2)nc2c1c(=O)n(C)c(=O)n2C | 13.1 µM |
| CCCCCn1c(SCCc2ccccc2)nc2c1c(=O)[nH]c(=O)n2C | > 20 µM (inactive) |
| Cc1ccc(S(=O)(=O)n2c(N)nc3ccccc32)cc1 | > 20 µM (inactive) |
| Cn1c(=O)[nH]c(=O)c2c1nc([N+](=O)[O-])n2Cc1ccccc1 | 1.32 µM |
| C/C=C/Cn1c(SCc2ccc(Cl)cc2)nc2c1c(=O)[nH]c(=O)n2C | > 20 µM (inactive) |
| CCCn1c(SCC(=O)Nc2nc3c(s2)CCCC3)nc2c1c(=O)n(C)c(=O)n2C | 3.31 µM |
| O=C(Nc1nc2ccccc2n1Cc1ccc(Cl)cc1)c1ccco1 | > 20 µM (inactive) |
| COCCn1c(SCCCc2ccccc2)nc2c1c(=O)[nH]c(=O)n2C | > 20 µM (inactive) |
| C/C(Cl)=C\Cn1c(NCCc2ccccc2)nc2c1c(=O)n(C)c(=O)n2C | 5.21 µM |
| CCCCn1c(CN2CCN(c3cccc(Cl)c3)CC2)nc2c1c(=O)n(C)c(=O)n2C | 5.69 µM |
| CCC(=O)Nc1nc2ccccc2n1Cc1ccccc1Cl | 16.9 µM |
